Laboratory results taken from publication PMC7367873, “Dissecting the sequence determinants for dephosphorylation by the catalytic subunits of phosphatases PP1 and PP2A” (Nature Communications, 2020).
Values belong to the substance of their own block, whether it stands above or below them.

Key:
[1] = tested on: GFP-14-3-3β and its binding proteins; assay: GFP-14-3-3β co-IP with LC-MS/MS label-free quantification, untreated versus PP1c-treated; design: species or system human
Experimental: (§1) HeLa Kyoto cells expressing transiently transfected pEGFP(C1)-14-3-3β or pEGFP(C1) control plasmid, were incubated with 20 nM Calyculin A (# 9902 S, Cell Signaling Technology) for 12 min. Cells were washed twice on ice with cold PBS and after addition of 500 µL lysis buffer (100 mM NaCl, 10 mM Tris, 0.1% IGEPAL, 1 mM EDTA, 1 mM EGTA, 20 nM Calyculin A, 1x cOmplete Mini protease inhibitor cocktail (Sigma), 1 mM DTT, 1 mM MnCl2) cells were scraped from plates, lysed by 10 pushes through an injection needle (21 G, BD) and the insoluble fraction was pelleted by centrifugation (10 min, 10^4 rcf, 4 °C). Supernatants were then subjected to incubation with 1 µM recombinant phosphatase or buffer for 1 h at 30 °C. Next, we subjected samples to immunoprecipitation using α-GFP nanobodies covalently coupled to agarose beads (2 h, 4 °C, obtained from the EMBL PEPcore Core Facility). Beads were then washed three times with lysis buffer and samples were eluted in 1x LDS sample buffer (Thermo Fisher Scientific) by heating to 70 °C for 10 min.
(§2) The samples were then reduced with 25 mM dithiothreitol (10 min at 70 °C) and alkylated with 55 mM chloroacetamide (room temperature, 30 min, in the dark). Proteins were run on a precast 4–12% NuPAGE gel (ThermoFisher Scientific) for about 1 cm to concentrate the sample prior to in-gel tryptic digestion, which was performed according to the standard procedures. The peptides obtained were dried to completeness and resuspended in 12 µL of buffer A (0.1% FA), and 5 µL of sample were injected per MS measurement. The experiment was carried out in three independent replicates.
(§3) The samples were analyzed by LC-MS/MS on a Dionex Ultimate 3000 nano-HPLC coupled online to a Fusion Lumos Tribrid mass spectrometer (Thermo Fisher Scientific). Peptides were delivered to a trap column (75 µm × 2 cm, packed in-house with 5 µm C18 resin; Reprosil PUR AQ, Dr. Maisch) and washed using 0.1% FA at a flow rate of 5 µL/min for 10 min. Subsequently, peptides were transferred to an analytical column (75 µm × 45 cm, packed in-house with 3 µm C18 resin; Reprosil Gold) applying a flow rate of 300 nL/min and separated using a 60 min linear gradient from 4% to 32% LC solvent B (0.1% FA, 5% DMSO in ACN) in LC solvent A (0.1% FA in 5% DMSO). The eluate from the analytical column was sprayed via a stainless steel emitter (Thermo Fisher Scientific) at a source voltage of 2.1 kV into the mass spectrometer. The transfer capillary was heated to 275 °C. The Fusion Lumos was operated in positive ionization mode and data-dependent acquisition (DDA), automatically switching between MS1 and MS2 spectrum acquisition. Full scan MS1 spectra were recorded in the Orbitrap from 360 to 1300 m/z at a resolution of 60k (automatic gain control (AGC) target value of 4e5 charges, maximum injection time (maxIT) of 50 ms). Up to 20 peptide precursors were isolated (isolation window, 1.7 m/z; maximum injection time, 25 ms; and AGC value, 1e5), fragmented by high-energy collision-induced dissociation (HCD) using 30% normalized collision energy (NCE), and analyzed at a resolution of 15k in the Orbitrap. Precursor ions that were singly charged, unassigned, or with charge states >6+ were excluded. The dynamic exclusion duration of fragmented precursor ions was 20 s.
(§4) Peptide and protein identification and LFQ were performed using MaxQuant software (version 1.6.1.0)[64] by searching the data against all canonical protein sequences as annotated in the Swissprot reference database (human proteins only, 20193 entries, downloaded 22 March 2016, internally annotated with PFAM domains) using the embedded search engine Andromeda[65]. The MaxQuant search was performed using two variable modifications; oxidation of methionine and N-terminal protein acetylation. Carbamidomethylation on cysteines was specified as a fixed modification. Trypsin (Trypsin/P) was specified as the proteolytic enzyme with up to two allowed missed cleavage sites.

[2] = tested on: GFP-14-3-3β; assay: GFP-14-3-3β co-IP with LC-MS/MS, untreated GFP-14-3-3β versus GFP control (14-3-3 interactome); type: binding, human
Experimental: as §1, §2, §3, §4

[3] = log2 difference, pairwise comparison PP1 vs untreated, label-free quantification, 3 replicates each
[4] = log2 difference, pairwise comparison untreated vs GFP, label-free quantification, 3 replicates each
[5] = GFP-14-3-3β co-IP LC-MS/MS, PP1 vs untreated, student's t-test, label-free quantification, 3 replicates each
[6] = GFP-14-3-3β co-IP LC-MS/MS, untreated vs GFP, student's t-test, label-free quantification, 3 replicates each
[7] = pairwise comparison PP1 vs untreated, student's t-test, 3 replicates each, LC-MS/MS label-free quantification
[8] = pairwise comparison untreated GFP-14-3-3β vs GFP, student's t-test, 3 replicates each, LC-MS/MS label-free quantification
[9] = pairwise comparison PP1 vs untreated
[10] = pairwise comparison untreated vs GFP
[11] = PP1 vs untreated, LFQ intensities, 3 replicates each
[12] = untreated vs GFP, LFQ intensities, 3 replicates each
[13] = PP1 vs untreated, label-free quantification
[14] = untreated vs GFP, label-free quantification

Substance: EPRS
Difference (log2), PP1 vs untreated [1, 5]: -0.1517 log2
Difference (log2), untreated vs GFP [2, 6]: -0.2032 log2

Substance: KIAA0930
Difference (log2), PP1 vs untreated [1, 7]: -2.858 log2
Difference (log2), untreated vs GFP [2, 8]: 3.752 log2

Substance: ANXA2;ANXA2P2
Difference (log2), PP1 vs untreated [1, 9]: 0.07284 log2
Difference (log2), untreated vs GFP [2, 10]: -0.03703 log2

Substance: TOMM40
Difference (log2), PP1 vs untreated [1, 9]: -0.1328 log2
Difference (log2), untreated vs GFP [2, 10]: 1.138 log2

Substance: MGST3
Difference (log2), PP1 vs untreated [1, 3]: 1.301
Difference (log2), untreated vs GFP [2, 4]: 0.5005

Substance: MCM7
Difference (log2), PP1 vs untreated [1, 13]: 1.01 log2
Difference (log2), untreated vs GFP [2, 14]: 0.04561 log2

Substance: PCM1
Difference (log2), PP1 vs untreated [1, 3]: 2.301
Difference (log2), untreated vs GFP [2, 4]: -0.166

Substance: ELAVL1
Difference (log2), PP1 vs untreated [1, 11]: 0.612 log2
Difference (log2), untreated vs GFP [2, 12]: 3.578 log2

Substance: FXR2
Difference (log2), PP1 vs untreated [1, 3]: 2.11
Difference (log2), untreated vs GFP [2, 4]: -0.343

Substance: SQSTM1
Difference (log2), PP1 vs untreated [1, 5]: -0.4375 log2
Difference (log2), untreated vs GFP [2, 6]: 0.1051 log2

Substance: SNRNP200
Difference (log2), PP1 vs untreated [1, 5]: -0.2654 log2
Difference (log2), untreated vs GFP [2, 6]: 1.652 log2

Substance: MTCL1
Difference (log2), PP1 vs untreated [1, 9]: 0.08295 log2
Difference (log2), untreated vs GFP [2, 10]: 0.986 log2

Substance: NUP205
Difference (log2), PP1 vs untreated [1, 5]: -0.6457 log2
Difference (log2), untreated vs GFP [2, 6]: 1.662 log2

Substance: CKAP5
Difference (log2), PP1 vs untreated [1, 5]: -0.2118 log2
Difference (log2), untreated vs GFP [2, 6]: -0.6501 log2

Substance: DDX21
Difference (log2), PP1 vs untreated [1, 5]: -0.7087 log2
Difference (log2), untreated vs GFP [2, 6]: 2.481 log2

Substance: TIMM50
Difference (log2), PP1 vs untreated [1, 5]: -0.2989 log2
Difference (log2), untreated vs GFP [2, 6]: 1.085 log2

Substance: MARK3
Difference (log2), PP1 vs untreated [1, 7]: -2.088 log2
Difference (log2), untreated vs GFP [2, 8]: 4.732 log2

Substance: TJP1
Difference (log2), PP1 vs untreated [1, 9]: -0.07001 log2
Difference (log2), untreated vs GFP [2, 10]: 1.92 log2

Substance: PTBP1
Difference (log2), PP1 vs untreated [1, 11]: 0.7235 log2
Difference (log2), untreated vs GFP [2, 12]: -0.5421 log2

Substance: CCT3
Difference (log2), PP1 vs untreated [1, 13]: 0.8223 log2
Difference (log2), untreated vs GFP [2, 14]: 0.2505 log2

Substance: AHNAK
Difference (log2), PP1 vs untreated [1, 5]: -0.4038 log2
Difference (log2), untreated vs GFP [2, 6]: -1.21 log2

Substance: SRSF1
Difference (log2), PP1 vs untreated [1, 7]: -3.492 log2
Difference (log2), untreated vs GFP [2, 8]: 4.313 log2

Second part, led by results:

Difference (log2), PP1 vs untreated [1, 3]: 1.396
Substance: MYO5A
Difference (log2), untreated vs GFP [2, 4]: 0.8351

Difference (log2), PP1 vs untreated [1, 5]: -0.3658 log2
Substance: CHD4
Difference (log2), untreated vs GFP [2, 6]: 2.168 log2

Difference (log2), PP1 vs untreated [1, 5]: -0.2534 log2
Substance: SLC7A5
Difference (log2), untreated vs GFP [2, 6]: 0.7726 log2

Difference (log2), PP1 vs untreated [1, 11]: 0.3784 log2
Substance: TUBA4A
Difference (log2), untreated vs GFP [2, 12]: -0.9346 log2

Difference (log2), PP1 vs untreated [1, 7]: -3.467 log2
Substance: MYO18A
Difference (log2), untreated vs GFP [2, 8]: 2.435 log2

Difference (log2), PP1 vs untreated [1, 13]: 1.014 log2
Substance: EMD
Difference (log2), untreated vs GFP [2, 14]: -1.504 log2

Difference (log2), PP1 vs untreated [1, 13]: 0.961 log2
Substance: IFI16
Difference (log2), untreated vs GFP [2, 14]: 0.868 log2

Difference (log2), PP1 vs untreated [1, 11]: 0.7153 log2
Substance: CD109
Difference (log2), untreated vs GFP [2, 12]: -1.476 log2

Difference (log2), PP1 vs untreated [1, 5]: -0.6453 log2
Substance: AKAP13
Difference (log2), untreated vs GFP [2, 6]: 1.366 log2

Difference (log2), PP1 vs untreated [1, 11]: 0.3782 log2
Substance: CORO1C
Difference (log2), untreated vs GFP [2, 12]: -0.8872 log2

Difference (log2), PP1 vs untreated [1, 9]: -0.1402 log2
Substance: DNAJA1
Difference (log2), untreated vs GFP [2, 10]: -0.4796 log2

Difference (log2), PP1 vs untreated [1, 3]: 1.575
Substance: EMC1
Difference (log2), untreated vs GFP [2, 4]: -0.5374
